Assay: xn = mol fraction of the nth substance listed

ClC(Cl)Cl + CC(C)=O
Conditions	viscosity [mPa·s]
293.15 K, 101 kPa, x1 = 0.157	0.3875
293.15 K, 101 kPa, x1 = 0.362	0.466
293.15 K, 101 kPa, x1 = 0.483	0.511
293.15 K, 101 kPa, x1 = 0.609	0.5471
293.15 K, 101 kPa, x1 = 0.824	0.5836
293.15 K, 101 kPa, x2 = 0.112	0.565
293.15 K, 101 kPa, x2 = 0.2	0.561
293.15 K, 101 kPa, x2 = 0.3098	0.543
293.15 K, 101 kPa, x2 = 0.415	0.523
293.15 K, 101 kPa, x2 = 0.502	0.495
293.15 K, 101 kPa, x2 = 0.6075	0.456
293.15 K, 101 kPa, x2 = 0.715	0.421
293.15 K, 101 kPa, x2 = 0.81	0.384
293.15 K, 101 kPa, x2 = 0.9075	0.349
293.15 K, 101.33 kPa, x1 = 0.1193	0.357
293.15 K, 101.33 kPa, x1 = 0.2623	0.408
293.15 K, 101.33 kPa, x1 = 0.3723	0.453
293.15 K, 101.33 kPa, x1 = 0.5128	0.508
293.15 K, 101.33 kPa, x1 = 0.6064	0.538
293.15 K, 101.33 kPa, x1 = 0.7001	0.56
293.15 K, 101.33 kPa, x1 = 0.8577	0.583
293.16 K, 101 kPa, x1 = 0.1193	0.357
293.16 K, 101 kPa, x1 = 0.2623	0.408
293.16 K, 101 kPa, x1 = 0.3723	0.453
293.16 K, 101 kPa, x1 = 0.5128	0.508
293.16 K, 101 kPa, x1 = 0.6064	0.538
293.16 K, 101 kPa, x1 = 0.7001	0.56
293.16 K, 101 kPa, x1 = 0.8577	0.583
293.35 K, 101 kPa, x1 = 0.75	0.6037
293.45 K, 101 kPa, x1 = 0.5	0.5307
298.15 K, 101 kPa, x1 = 0.2	0.353
298.15 K, 101 kPa, x1 = 0.4	0.424
298.15 K, 101 kPa, x1 = 0.6	0.486
298.15 K, 101 kPa, x1 = 0.8	0.512
298.15 K, 101 kPa, x2 = 0.0555	0.5334
298.15 K, 101 kPa, x2 = 0.112	0.538
298.15 K, 101 kPa, x2 = 0.1361	0.5423
298.15 K, 101 kPa, x2 = 0.2	0.534
298.15 K, 101 kPa, x2 = 0.2192	0.5338
298.15 K, 101 kPa, x2 = 0.2437	0.536
298.15 K, 101 kPa, x2 = 0.3023	0.5258
298.15 K, 101 kPa, x2 = 0.3098	0.516
298.15 K, 101 kPa, x2 = 0.3737	0.508
298.15 K, 101 kPa, x2 = 0.415	0.495
298.15 K, 101 kPa, x2 = 0.4585	0.4864
298.15 K, 101 kPa, x2 = 0.496	0.4726
298.15 K, 101 kPa, x2 = 0.502	0.47
298.15 K, 101 kPa, x2 = 0.552	0.4529
298.15 K, 101 kPa, x2 = 0.5688	0.4495
298.15 K, 101 kPa, x2 = 0.6075	0.434
298.15 K, 101 kPa, x2 = 0.6721	0.411
298.15 K, 101 kPa, x2 = 0.6793	0.4052
298.15 K, 101 kPa, x2 = 0.6886	0.4042
298.15 K, 101 kPa, x2 = 0.715	0.402
298.15 K, 101 kPa, x2 = 0.7302	0.3926
298.15 K, 101 kPa, x2 = 0.7676	0.3817
298.15 K, 101 kPa, x2 = 0.8067	0.3628
298.15 K, 101 kPa, x2 = 0.81	0.367
298.15 K, 101 kPa, x2 = 0.8196	0.3551
298.15 K, 101 kPa, x2 = 0.8757	0.3425
298.15 K, 101 kPa, x2 = 0.9075	0.334
298.15 K, 101 kPa, x2 = 0.9182	0.3261
298.15 K, 101 kPa, x2 = 0.9233	0.3206
298.15 K, 101 kPa, x2 = 0.963	0.3092
298.15 K, 101.33 kPa, x1 = 0.1483	0.356
298.15 K, 101.33 kPa, x1 = 0.2721	0.4
298.15 K, 101.33 kPa, x1 = 0.3885	0.445
298.15 K, 101.33 kPa, x1 = 0.4985	0.485
298.15 K, 101.33 kPa, x1 = 0.6363	0.527
298.15 K, 101.33 kPa, x1 = 0.7114	0.543
298.15 K, 101.33 kPa, x1 = 0.8834	0.557
298.16 K, 101 kPa, x1 = 0.1483	0.356
298.16 K, 101 kPa, x1 = 0.2721	0.4
298.16 K, 101 kPa, x1 = 0.3885	0.445
298.16 K, 101 kPa, x1 = 0.4985	0.485
298.16 K, 101 kPa, x1 = 0.6363	0.527
298.16 K, 101 kPa, x1 = 0.7114	0.543
298.16 K, 101 kPa, x1 = 0.8834	0.557
302.95 K, 101 kPa, x1 = 0.25	0.3982
303.15 K, 101 kPa, x2 = 0.112	0.512
303.15 K, 101 kPa, x2 = 0.2	0.507
303.15 K, 101 kPa, x2 = 0.3098	0.488
303.15 K, 101 kPa, x2 = 0.415	0.468
303.15 K, 101 kPa, x2 = 0.502	0.447
303.15 K, 101 kPa, x2 = 0.6075	0.412
303.15 K, 101 kPa, x2 = 0.715	0.383
303.15 K, 101 kPa, x2 = 0.81	0.35
303.15 K, 101 kPa, x2 = 0.9075	0.322
303.15 K, 101.33 kPa, x1 = 0.1041	0.326
303.15 K, 101.33 kPa, x1 = 0.1842	0.352
303.15 K, 101.33 kPa, x1 = 0.2689	0.381
303.15 K, 101.33 kPa, x1 = 0.3733	0.424
303.15 K, 101.33 kPa, x1 = 0.5487	0.488
303.15 K, 101.33 kPa, x1 = 0.6876	0.514
303.15 K, 101.33 kPa, x1 = 0.8278	0.54
303.16 K, 101 kPa, x1 = 0.1041	0.326
303.16 K, 101 kPa, x1 = 0.1842	0.352
303.16 K, 101 kPa, x1 = 0.2689	0.381
303.16 K, 101 kPa, x1 = 0.3733	0.424
303.16 K, 101 kPa, x1 = 0.5487	0.488
303.16 K, 101 kPa, x1 = 0.6876	0.514
303.16 K, 101 kPa, x1 = 0.8278	0.54
303.55 K, 101 kPa, x1 = 0.75	0.5427
303.65 K, 101 kPa, x1 = 0.5	0.4779
308.15 K, 101 kPa, x2 = 0.112	0.487
308.15 K, 101 kPa, x2 = 0.2	0.482
308.15 K, 101 kPa, x2 = 0.3098	0.467
308.15 K, 101 kPa, x2 = 0.415	0.446
308.15 K, 101 kPa, x2 = 0.502	0.426
308.15 K, 101 kPa, x2 = 0.6075	0.398
308.15 K, 101 kPa, x2 = 0.715	0.365
308.15 K, 101 kPa, x2 = 0.81	0.336
308.15 K, 101 kPa, x2 = 0.9075	0.312
311.65 K, 101 kPa, x1 = 0.75	0.5052
313.15 K, 101 kPa, x1 = 0.157	0.3324
313.15 K, 101 kPa, x1 = 0.25	0.366
313.15 K, 101 kPa, x1 = 0.362	0.394
313.15 K, 101 kPa, x1 = 0.483	0.4257
313.15 K, 101 kPa, x1 = 0.609	0.4577
313.15 K, 101 kPa, x1 = 0.824	0.4867
313.85 K, 101 kPa, x1 = 0.5	0.4341
321.65 K, 101 kPa, x1 = 0.75	0.4644

— the CheMixHub viscosity set
